# According to patent US20230172945A1, “APPLICATION OF COMPOUNDS IN CONTROLLING OR KILLING MITES” (SMILEBIOTEK ZHUHAI LIMITED, priority 2020, published 2023):
# Tested on: D. folliculorum
# Test: In-vitro culture of Demodex mites: effect of compounds on survival time
# Type: cell-based
# Settings: for Survival time: in vitro, 35 μL solution in 10% DMSO on glass slide, observed every 2 hours, mean ± spread; for Survival time / survival time of the Demodex mites in vitro: 20° C., humidity 96%; for survival time of the Demodex mites in vitro: compared with negative control 10% DMSO (80.79±25.34); for effect on survival time of mites as compared with the control group (in words): versus 10% DMSO negative control
# Method: The powders of the reference compounds shown in Table 1 were separately dissolved in dimethyl sulfoxide (DMSO), and then diluted with sterilized double-distilled water to make the final concentration of DMSO 10%, which could not shorten the survival time of Demodex mites as per a controlled study. The negative control group received DMSO mixed with sterilized water at a final concentration of 10%.
# 35 μL of each solution was added to a glass slide, and the survival of the mites was observed under an optical microscope every 2 hours. During the experiment, the Demodex mites were observed by two skilled operators separately for the activities (bodies, limbs and the like) through the microscope to determine whether they were dead or not. If the two operators gave different results, the survival status was determined independently by a third skilled operator. The in-vitro culture was conducted in a climatic chamber at a temperature of 20° C. and a humidity of 96%. During the observation, the glass slides were transported in a wet box to ensure the high humidity.
# In this experiment, statistical analysis was conducted using SPSS22.0 statistical software, normality test was conducted using Shapiro-Wilk test, and homogeneity of variance test was conducted using Bartlett's test.
# Effects of compounds on survival time of D. folliculorum The in-vitro culture of the Demodex mites was conducted in an environment at a humidity of 96% and a temperature of 20° C. The survival of the Demodex mites was observed dynamically and the survival time was recorded.
Structure (SMILES),Survival time,survival time of the Demodex mites in vitro,effect on survival time of mites as compared with the control group (in words)
C=C[C@H]1[C@H](O[C@@H]2O[C@H](CO)[C@@H](O)[C@H](O)[C@H]2O)OC=C2C(=O)OCC[C@]21O [Swertiamarin],59.68 ± 10.97 h,,
COc1ccc(-c2cc(=O)c3c(O)cc(O)cc3o2)cc1O [Diosmetin],35.92 ± 14.82 h,35.92±14.82,significantly shorten the survival time of mites
C=C(C)[C@@H]1CC[C@]2(C)[C@H](CC=C3[C@@H]4[C@@H](C)[C@H](C)CC[C@]4(C)CC[C@]32C)[C@@]1(C)CCC(=O)O [Roburic acid],63.41 ± 12.20 h,,
C=C[C@H]1[C@H](O[C@@H]2O[C@H](CO)[C@@H](O)[C@H](O)[C@H]2O)OC=C2C(=O)OCC[C@H]21 [Sweroside],60.79 ± 25.98 h,,
CC1(C)CC[C@]2(C)CC=C3[C@]4(C)CC[C@H]5C(C)(C)[C@@H](O)CC[C@]5(C)[C@H]4CC[C@@]3(C)[C@@H]2C1 [Taraxerol],37.91 ± 20.96 h,37.91±20.96,significantly shorten the survival time of mites
CC(=O)O[C@H]1CC[C@]2(C)[C@H]3CC[C@]4(C)C(=CC[C@@]5(C)CCC(C)(C)C[C@H]54)[C@]3(C)CC[C@H]2C1(C)C [Taraxeryl acetate],70.57 ± 27.45 h,,
C=C1CC[C@]2(C)CC[C@]3(C)[C@H](CC[C@@H]4[C@@]5(C)CC[C@H](OC(C)=O)C(C)(C)[C@@H]5CC[C@]43C)[C@H]2[C@@H]1C [Taraxasterol acetate],34.14 ± 22.96 h,37.91±20.96,significantly shorten the survival time of mites
C[C@@H]1[C@H]2[C@H](O[C@@H]3O[C@H](CO)[C@@H](O)[C@H](O)[C@H]3O)OC=C(C(=O)O)[C@H]2C[C@@H]1O [Loganic acid],61.56 ± 22.84 h,,
C=C[C@@H]1C2=CCOC(=O)C2=CO[C@H]1O[C@@H]1O[C@H](CO)[C@@H](O)[C@H](O)[C@H]1O [Gentiopicroside],37.31 ± 36.06 h,37.31±36.06,significantly shorten the survival time of mites
C=C1CC[C@]2(C)CC[C@]3(C)[C@H](CC[C@@H]4[C@@]5(C)CC[C@H](O)C(C)(C)[C@@H]5CC[C@]43C)[C@H]2[C@@H]1C [Taraxasterol],68.28 ± 31.30 h,,
CC1(C)CC[C@]2(C)CC=C3[C@]4(C)CC[C@H]5C(C)(C)C(=O)CC[C@]5(C)[C@H]4CC[C@@]3(C)[C@@H]2C1 [Taraxerone],62.06 ± 28.97 h,,
C=C(C)[C@@H]1CC[C@]2(C)CC[C@]3(C)[C@H](CC[C@@H]4[C@@]5(C)CCC(=O)C(C)(C)[C@@H]5CC[C@]43C)[C@@H]12 [Lupenone],66.25 ± 31.22 h,,
